Data on 26 compounds can be found in patent US12624003B2, “Carboxylic acid containing indanyl compounds for the treatment of neurodegenerative diseases” (Celgene Corporation, priority 2020, dated 2026).

In the assay the target is T1, S1P5 (Homo sapiens, UniProt Q9H228).
T1 construct: expressed in transfected cells; host or cells: CHO cells (membranes)
T1 sequence (Q9H228 whole entry, species assumed): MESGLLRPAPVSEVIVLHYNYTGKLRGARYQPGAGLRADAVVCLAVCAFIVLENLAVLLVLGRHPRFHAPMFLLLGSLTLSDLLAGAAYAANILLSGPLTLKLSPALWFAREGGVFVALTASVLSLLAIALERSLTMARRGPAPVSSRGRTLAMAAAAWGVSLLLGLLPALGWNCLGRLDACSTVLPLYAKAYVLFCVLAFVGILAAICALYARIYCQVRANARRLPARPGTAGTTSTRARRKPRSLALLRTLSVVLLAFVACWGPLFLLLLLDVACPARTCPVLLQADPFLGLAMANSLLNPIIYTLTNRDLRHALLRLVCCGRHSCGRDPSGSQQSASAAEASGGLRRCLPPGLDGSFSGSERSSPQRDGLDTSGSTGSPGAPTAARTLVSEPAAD
Put plainly: [35S]-GTPγS functional binding assay on CHO-S1P5 membranes. The format is biochemical. The note with it: membranes of CHO cells expressing recombinant S1P5 receptors; measure of S1P5 agonism. On the procedure: CHO cells expressing recombinant S1P5 receptors were cultured in 500 cm^2 culture trays and, once confluent, rinsed and detached with cell-lifting buffer (10 mM HEPES, 154 mM NaCl, 6.85 mM EDTA, pH 7.4). Cells were then pelleted by centrifugation, resuspended, and homogenized in membrane preparation buffer (10 mM HEPES and 10 mM EDTA, pH 7.4) using a Polytron PT 1200E homogenizer (Kinematica, Luzern, Switzerland). Cellular proteins were pelleted by centrifugation at 48,000×g at 4° C. for 30 minutes. The resulting supernatant was discarded, and the pellet was re-suspended again in membrane preparation buffer, homogenized for a second time, and then centrifuged again as described above. The final cellular protein pellet was suspended in ice cold resuspension buffer (10 mM HEPES and 0.1 mM EDTA, pH 7.4), divided into aliquots, and stored at −80° C. until use.
Functional binding assays for [^35S]-GTPγS were performed in 96-well non-binding surface plates with a final volume of 200 μL. The test compounds were serially diluted in DMSO and added to assay plates using a Tecan D300E digital printer with a total volume of 0.4 μL. The control sphingosine-1-phosphate (S1P) was prepared separately by preparing a 400 μM stock solution from a 100 nmol pellet of SIP in 10 mM Na2CO3 with 2% s-cyclodextrin. The serial dilution of S1P was done using complete assay buffer (20 mM HEPES, 10 mM MgCl2, 100 mM NaCl, 1 mM EDTA, 0.1% fatty acid free bovine serum albumin (BSA), and 30 μg/mL saponin, pH 7.4) and transferred to wells already containing 0.4 μL DMSO. All the wells were then loaded to a total volume of 40 μL of complete assay buffer, except the non-specific binding (NSB) wells. For NSB wells, 40 μL/well of 50 μM GTPγS (Sigma Aldrich, cat #G8634, St. Louis, MO) was added to wells containing 0.4 μL of DMSO. The assay was started by the addition of 120 μL/well of CHO-S1P receptor membrane solution containing 40 μg/mL of membrane protein, 16.67 μM guanosine diphosphate (GDP; Sigma Aldrich, cat #G7127, St. Louis, MO), and 2.5 mg/mL of WGA PVT SPA beads in complete buffer. Assay plates were then sealed and incubated at room temperature with gentle agitation for 30 minutes. Next, 40 μL/well of 1 nM of [^35S]-GTPγS (PerkinElmer, cat #NEG030X250UC, Waltham, MA) in basic assay buffer (20 mM HEPES, 10 mM MgCl2, 100 mM NaCl, and 1 mM EDTA, pH 7.4) was added to the assay plates to yield a final concentration of […] and the plates were further incubated for 40 minutes at room temperature with gentle agitation. The assay was terminated by centrifugation of the plates at 1000 rpm for 3 minutes using an Eppendorf 5810R centrifuge (Eppendorf, Hamburg, Germany) and G protein bound radioactivity was quantitated using a MicroBeta2 microplate scintillation counter (PerkinElmer, Waltham, MA). As G protein bound radioactivity directly correlates to receptor activation and coupling to the G protein, this assay is a measure of S1P5 agonism.
On the technique in general: GTPγS is a poorly hydrolysed GTP analogue; its binding reports G protein activation.
As to `O=C(O)C1CCN(C2CCc3cc(CCc4ccccc4Cl)ccc32)CC1` (single isomer, unassigned) [Compound 25b, 1-(5-(2-chlorophenethyl)-2,3-dihydro-1H-inden-1-yl)piperidine-4-carboxylic acid], the EC50 (usually the concentration giving half of the maximal effect) was 100 to 1000 nM. Then `O=C(O)C1CCN(C2CCc3cc(C#Cc4ccccc4F)ccc32)CC1` (single isomer, unassigned) [Compound 6a, 1-(5-((2-fluorophenyl)ethynyl)-2,3-dihydro-1H-inden-1-yl)piperidine-4-carboxylic acid], with 10 to 100 nM. As to `O=C(O)C1CCN(C2CCc3cc(-c4ccc5c(c4)OCC5)ccc32)CC1` (single isomer, unassigned) [Compound 41, 1-(5-(2,3-dihydrobenzofuran-6-yl)-2,3-dihydro-1H-inden-1-yl)piperidine-4-carboxylic acid], the EC50 was in the range of 100 to 1000 nM.

In the case of `O=C(O)C1CN(C2CCc3cc(-c4ccc(C5CC5)c(Cl)c4)ccc32)C1` (single isomer, unassigned) [Compound 30a, 1-(5-(3-chloro-4-cyclopropylphenyl)-2,3-dihydro-1H-inden-1-yl)azetidine-3-carboxylic acid], the 50% effective concentration (EC50) is at most 10 nM. `O=C(O)C1CCN(C2CCc3cc(C#Cc4cccc(F)c4)ccc32)CC1` (single isomer, unassigned) [Compound 4a, 1-(5-((3-fluorophenyl)ethynyl)-2,3-dihydro-1H-inden-1-yl)piperidine-4-carboxylic acid]: the half-maximal effective concentration (EC50) lay in the range of 100 to 1000 nM. As to `O=C(O)C1CCN(C2CCc3cc(-c4ccc(C5CC5)c(Cl)c4)ccc32)CC1` (single isomer, unassigned) [Compound 32a, 1-(5-(3-chloro-4-cyclopropylphenyl)-2,3-dihydro-1H-inden-1-yl)piperidine-4-carboxylic acid], the EC50 is 100 to 1000 nM.

In the case of `O=C(O)C1CN(C2CCc3cc(C#Cc4c(Cl)cccc4Cl)ccc32)C1` (single isomer, unassigned) [Compound 18, 1-(5-((2,6-dichlorophenyl)ethynyl)-2,3-dihydro-1H-inden-1-yl)azetidine-3-carboxylic acid], the EC50 is at most 10 nM. Next, `O=C(O)[C@H]1CCN(C2CCc3cc(-c4ccc(C5CC5)c(Cl)c4)ccc32)C1` (single isomer, unassigned) [Compound 35a]: 10 to 100 nM. Then `O=C(O)C1CCN(C2CCc3cc(-c4ccc(C5CC5)c(Cl)c4)ccc32)CC1` (single isomer, unassigned) [Compound 32b, 1-(5-(3-chloro-4-cyclopropylphenyl)-2,3-dihydro-1H-inden-1-yl)piperidine-4-carboxylic acid], with at most 10 nM; and `O=C(O)[C@H]1CCN(C2CCc3cc(-c4ccc(C5CC5)c(F)c4)ccc32)C1` (single isomer, unassigned) [Compound 37a], with 100 to 1000 nM. Next, `O=C(O)[C@H]1[C@@H]2CN(C3CCc4cc(C#Cc5cccc(F)c5)ccc43)C[C@@H]21` (stereo partly drawn) [Compound 16, (1R,5S,6r)-3-(5-((3-fluorophenyl)ethynyl)-2,3-dihydro-1H-inden-1-yl)-3-azabicyclo[3.1.0]-hexane-6-carboxylic acid]: 100 to 1000 nM.

Turning to `O=C(O)C1CCN(C2CCc3cc(-c4cccc5c4CCC5)ccc32)CC1` (single isomer, unassigned) [Compound 45, 1-(2,2′,3,3′-tetrahydro-1H,1′H-[4,5′-biinden]-1′-yl)piperidine-4-carboxylic acid], the EC50 fell in the range of 100 to 1000 nM.

As to `O=C(O)[C@@H]1CCN(C2CCc3cc(-c4ccc(C5CC5)c(F)c4)ccc32)C1` (single isomer, unassigned) [Compound 36b], the EC50 was at most 10 nM. Next, `O=C(O)C1CN(C2CCc3cc(C#Cc4cc(F)ccc4F)ccc32)C1` (single isomer, unassigned) [Compound 20, 1-(5-((2,5-difluorophenyl)ethynyl)-2,3-dihydro-1H-inden-1-yl)azetidine-3-carboxylic acid]: at most 10 nM; `CC1(C)CN(C2CCc3cc(C#Cc4cccc(F)c4)ccc32)CCC1C(=O)O` (centres unmarked) [Compound 5, 1-(5-((3-fluorophenyl)ethynyl)-2,3-dihydro-1H-inden-1-yl)-3,3-dimethylpiperidine-4-carboxylic acid]: 100 to 1000 nM. Then `O=C(O)C1CCN(C2CCc3cc(CCc4ccccc4Cl)ccc32)CC1` (single isomer, unassigned) [Compound 25a, 1-(5-(2-chlorophenethyl)-2,3-dihydro-1H-inden-1-yl)piperidine-4-carboxylic acid], with 10 to 100 nM; and `O=C(O)[C@H]1CCCCN1C1CCc2cc(C#Cc3cccc(F)c3)ccc21` (single isomer, unassigned) [Compound 9a], with 1000 to 10000 nM. Then `O=C(O)C1CCN(C2CCc3cc(-c4ccc5ocnc5c4)ccc32)CC1` (single isomer, unassigned) [Compound 42, 1-(5-(benzo[d]oxazol-5-yl)-2,3-dihydro-1H-inden-1-yl)piperidine-4-carboxylic acid], with 1000 to 10000 nM; and `O=C(O)C1(F)CCN(C2CCc3cc(C#Cc4c(Cl)cccc4Cl)ccc32)CC1` (single isomer, unassigned) [Compound 3a, 1-(5-((2,6-dichlorophenyl)ethynyl)-2,3-dihydro-1H-inden-1-yl)-4-fluoropiperidine-4-carboxylic acid], with at most 10 nM; and `O=C(O)C1CCN(C2CCc3cc(CCc4cccc(F)c4)ccc32)CC1` (single isomer, unassigned) [Compound 26a, 1-(5-(3-fluorophenethyl)-2,3-dihydro-1H-inden-1-yl)piperidine-4-carboxylic acid], with 100 to 1000 nM.

As to `O=C(O)[C@@H]1[C@@H]2CN(C3CCc4cc(C#Cc5cccc(F)c5)ccc43)C[C@@H]21` (stereo partly drawn) [Compound 17, (1R,5S,6s)-3-(5-((3-fluorophenyl)ethynyl)-2,3-dihydro-1H-inden-1-yl)-3-azabicyclo[3.1.0]-hexane-6-carboxylic acid], the EC50 lay within 10 to 100 nM. Next, `O=C(O)C1CCN(C2CCc3cc(C#Cc4cccc(F)c4)ccc32)CC12CC2` (centres unmarked) [Compound 12, 5-(5-((3-fluorophenyl)ethynyl)-2,3-dihydro-1H-inden-1-yl)-5-azaspiro[2.5]octane-8-carboxylic acid]: 10 to 100 nM. Then `O=C(O)C1CCN(C2CCc3cc(-c4ccc5c(c4)CCO5)ccc32)CC1` (single isomer, unassigned) [Compound 43, 1-(5-(2,3-dihydrobenzofuran-5-yl)-2,3-dihydro-1H-inden-1-yl)piperidine-4-carboxylic acid], with 100 to 1000 nM. As to `O=C(O)C1(F)CCN(C2CCc3cc(C#Cc4c(Cl)cccc4Cl)ccc32)CC1` (single isomer, unassigned) [Compound 3b, 1-(5-((2,6-dichlorophenyl)ethynyl)-2,3-dihydro-1H-inden-1-yl)-4-fluoropiperidine-4-carboxylic acid], the EC50 was at most 10 nM. Next, `O=C(O)C1CCN(C2CCc3cc(C#Cc4cccc(F)c4)ccc32)CC1` (single isomer, unassigned) [Compound 4b, 1-(5-((3-fluorophenyl)ethynyl)-2,3-dihydro-1H-inden-1-yl)piperidine-4-carboxylic acid]: at most 10 nM. As for `O=C(O)C1CC2(C1)CN(C1CCc3cc(C#Cc4c(Cl)cccc4Cl)ccc31)C2` (centres unmarked) [Compound 21, 2-(5-((2,6-dichlorophenyl)ethynyl)-2,3-dihydro-1H-inden-1-yl)-2-azaspiro[3.3]heptane-6-carboxylic acid], the EC50 is 10 to 100 nM.
